Experimental data taken from PubChem BioAssay AID2060906 (Molecular Pharmacology Branch, DTP, NCI, 2025).

System: 485176-168-R4-J1-PDC complex spheroid growth
Assay: Anticancer human tumor 485176-168-R4-J1-PDC patient-derived pancreatic adenocarcinoma cell line growth inhibition [RAS]
Conditions: for IC50: curve of first compound; for viability, T/C: stronger effect = lower value
How it was run: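 Agents were tested in combination matrices in half-log decrements from a top concentration at or near clinical Cmax (10 microM if undetermined). Targets were multi-cell spheroids of tumour lines plus HUVEC and MSC stromal cells.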

[1] = second compound 0.000949 µM, first compound 0.0316 µM
[2] = second compound 0.000949 µM, first compound 0.1 µM
[3] = second compound 0.000949 µM, first compound 0.316 µM
[4] = second compound 0.000949 µM, first compound 1 µM
[5] = second compound 0.000949 µM, first compound 3.16 µM
[6] = second compound 0.000949 µM, first compound 10 µM
[7] = second compound 0.003 µM, first compound 0.0316 µM
[8] = second compound 0.003 µM, first compound 0.1 µM
[9] = second compound 0.003 µM, first compound 0.316 µM
[10] = second compound 0.003 µM, first compound 1 µM
[11] = second compound 0.003 µM, first compound 3.16 µM
[12] = second compound 0.003 µM, first compound 10 µM
[13] = second compound 0.00949 µM, first compound 0.0316 µM
[14] = second compound 0.00949 µM, first compound 0.1 µM
[15] = second compound 0.00949 µM, first compound 0.316 µM
[16] = second compound 0.00949 µM, first compound 1 µM
[17] = second compound 0.00949 µM, first compound 3.16 µM
[18] = second compound 0.00949 µM, first compound 10 µM
[19] = second compound 0.03 µM, first compound 0.0316 µM
[20] = second compound 0.03 µM, first compound 0.1 µM
[21] = second compound 0.03 µM, first compound 0.316 µM
[22] = second compound 0.03 µM, first compound 1 µM
[23] = second compound 0.03 µM, first compound 3.16 µM
[24] = second compound 0.03 µM, first compound 10 µM
[25] = second compound 0.0949 µM, first compound 0.0316 µM
[26] = second compound 0.0949 µM, first compound 0.1 µM
[27] = second compound 0.0949 µM, first compound 0.316 µM
[28] = second compound 0.0949 µM, first compound 1 µM
[29] = second compound 0.0949 µM, first compound 3.16 µM
[30] = second compound 0.0949 µM, first compound 10 µM
[31] = second compound 0.3 µM, first compound 0.0316 µM
[32] = second compound 0.3 µM, first compound 0.1 µM
[33] = second compound 0.3 µM, first compound 0.316 µM
[34] = second compound 0.3 µM, first compound 1 µM
[35] = second compound 0.3 µM, first compound 3.16 µM
[36] = second compound 0.3 µM, first compound 10 µM
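Further: spheroids exposed to compounds for seven days before readout.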
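Wherever viability, T/C is given: luminescence viability expressed relative to DMSO vehicle wells set as 100%.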

SMILES: CCC(CC)c1cc(NC2CCC(N)C2)n2nccc2n1 (centres undefined) + CCn1c(-c2cccnc2C(C)OC)c2c3cc(ccc31)N1CCOC(CC(NC(=O)C(C(C)C)N(C)C(=O)C3(F)CCN(C(=O)C#CC(C)(C)N(C)C)CC3)C(=O)N3CCCC(N3)C(=O)OCC(C)(C)C2)C1
- IC50 (second compound 0.000949 µM): 1260 nM
- IC50 (second compound 0.003 µM): 1440 nM
- IC50 (second compound 0.00949 µM): 1270 nM
- IC50 (second compound 0.03 µM): 1080 nM
- IC50 (second compound 0.0949 µM): 1010 nM
- IC50 (second compound 0.3 µM): 521 nM
- viability, T/C [1]: 94.6%
- viability, T/C [2]: 117%
- viability, T/C [3]: 86%
- viability, T/C [4]: 64.1%
- viability, T/C [5]: 2.09%
- viability, T/C [6]: 0.42%
- viability, T/C [7]: 105%
- viability, T/C [8]: 104%
- viability, T/C [9]: 100%
- viability, T/C [10]: 72.1%
- viability, T/C [11]: 2.19%
- viability, T/C [12]: 0.46%
- viability, T/C [13]: 88.4%
- viability, T/C [14]: 79.7%
- viability, T/C [15]: 98.8%
- viability, T/C [16]: 62.6%
- viability, T/C [17]: 2.5%
- viability, T/C [18]: 0.59%
- viability, T/C [19]: 96%
- viability, T/C [20]: 105%
- viability, T/C [21]: 95.9%
- viability, T/C [22]: 53.7%
- viability, T/C [23]: 2.5%
- viability, T/C [24]: 0.41%
- viability, T/C [25]: 87%
- viability, T/C [26]: 77.3%
- viability, T/C [27]: 94.2%
- viability, T/C [28]: 50.3%
- viability, T/C [29]: 2.64%
- viability, T/C [30]: 0.46%
- viability, T/C [31]: 82.9%
- viability, T/C [32]: 72.8%
- viability, T/C [33]: 64.5%
- viability, T/C [34]: 32.7%
- viability, T/C [35]: 2.76%
- viability, T/C [36]: 0.53%

SMILES: NC1c2ccccc2OC12CCN(c1cnc3c(N4CCCc5ncccc54)n[nH]c3n1)CC2 (centres undefined) + CCn1c(-c2cccnc2C(C)OC)c2c3cc(ccc31)N1CCOC(CC(NC(=O)C(C(C)C)N(C)C(=O)C3(F)CCN(C(=O)C#CC(C)(C)N(C)C)CC3)C(=O)N3CCCC(N3)C(=O)OCC(C)(C)C2)C1
- IC50 (second compound 0.000949 µM): > 10000 nM
- IC50 (second compound 0.003 µM): > 10000 nM
- IC50 (second compound 0.00949 µM): > 10000 nM
- IC50 (second compound 0.03 µM): > 10000 nM
- IC50 (second compound 0.0949 µM): > 10000 nM
- IC50 (second compound 0.3 µM): > 10000 nM
- viability, T/C [1]: 91.4%
- viability, T/C [2]: 78.7%
- viability, T/C [3]: 94.2%
- viability, T/C [4]: 85.9%
- viability, T/C [5]: 67.8%
- viability, T/C [6]: 71.6%
- viability, T/C [7]: 74.5%
- viability, T/C [8]: 89.4%
- viability, T/C [9]: 84.1%
- viability, T/C [10]: 85.5%
- viability, T/C [11]: 85.7%
- viability, T/C [12]: 70.2%
- viability, T/C [13]: 85%
- viability, T/C [14]: 75.6%
- viability, T/C [15]: 81.9%
- viability, T/C [16]: 86.8%
- viability, T/C [17]: 89.9%
- viability, T/C [18]: 63.6%
- viability, T/C [19]: 88.8%
- viability, T/C [20]: 86.8%
- viability, T/C [21]: 80.2%
- viability, T/C [22]: 71.3%
- viability, T/C [23]: 93.9%
- viability, T/C [24]: 61.1%
- viability, T/C [25]: 75%
- viability, T/C [26]: 71.8%
- viability, T/C [27]: 72.7%
- viability, T/C [28]: 65.9%
- viability, T/C [29]: 82.2%
- viability, T/C [30]: 61.7%
- viability, T/C [31]: 59.9%
- viability, T/C [32]: 76.7%
- viability, T/C [33]: 57%
- viability, T/C [34]: 70.2%
- viability, T/C [35]: 62.9%
- viability, T/C [36]: 61.7%
